Measured values reported in patent publication US20230149507A1, “TREATMENT OF ALT CANCERS” (INSTITUTO DE MEDICINA MOLECULAR JOÃO LOBO ANTUNES, priority 2019, published 2023).

Legend:
[1] = system: U-2 OS cells; experiment: Fragile telomeres in cells overexpressing FANCM variants; type: cell-based, human; settings: stable overexpression
Source text: (§1) (a) Schematic of FANCM domain interactions, mutations or deletions. For clarity, domains have been color coded by functional role (bottom panel). (b) Quantitation of metaphase-TIFs in U-2 OS cells stably overexpressing wild-type (FANCM+) or FANCM mutants. Scatterplot bars represent the mean±SEM. Out of 3 experiments, n≥110 metaphases scored for each mutant, *p<0.05, **p<0.005, Mann-Whitney test. (c) Quantitation of fragile telomeres in U-2 OS cells stably overexpressing wild-type (FANCM+) or FANCM mutants. Scatterplot bars represent the mean±SEM. Out of 3 experiments, n>100 metaphases scored for each mutant, *p<0.05, **p<0.005, Mann-Whitney test. (d) Representative dot blots and quantitation of C-circle assays in U-2 OS cells stably overexpressing wild-type (FANCM+) or FANCM domain mutants. C-circles were normalized to the mean of vector control. Error bars represent mean±SEM from n=3 experiments, *p<0.05, **p<0.005, Student's t-test. (e) Single molecule analysis of telomeric extension events (top panel) and length of extension events (bottom panel) in U-2 OS cells stably overexpressing wild-type (FANCM+) or FANCM domain mutants. Error bars represent mean±SEM of n≥350 fibers out of 3 experiments, *p<0.05, **p<0.005, Student's t-test.
(§2) Empty vector and wild-type FANCM (pCMV6-Myc-DDK) constructs were obtained from Origene Technologies. Wild type FANCM (SEQ ID NO: 2) and FANCM mutants (SEQ ID NOs: 19 to 28) were cloned into the pLenti-C-Myc-DDK-IRES-Neo backbone (Origene Technologies) by restriction enzyme subcloning of gene blocks synthesized by Integrated DNA Technologies (IDT). Lentivirus was produced by the Vector and Genome Engineering Facility (Children's Medical Research Institute). For stable overexpression, cells were transduced with lentivirus, allowed to recover for 24 h, and subject to G418 selection. Cells were maintained in G418 to ensure sustained overexpression.
(§3) Indirect IF and telomere FISH were performed on both interphase nuclei and metaphase spreads. For interphase IF experiments, cells were grown on coverslips or LabTek chamber slides (Thermo Scientific). Slides were prepared as described in Sobinoff et al., 2017. Cells on coverslips were washed twice with PBS, permeabilized with KCM buffer (120 mM KCl, 20 mM NaCl, 10 mM Tris pH 7.5, 0.1% Triton), washed again with PBST and PBS, then fixed with ice-cold 4% formaldehyde PBS solution at room temperature for 10 min. Coverslips were blocked with antibody-dilution buffer (20 mM Tris-HCl, pH 7.5, 2% (w/v) BSA, 0.2% (v/v) fish gelatin, 150 mM NaCl, 0.1% (v/v) Triton X-100 and 0.1% (w/v) sodium azide) and 0.1 mg/ml RNaseA for 30 min at 37° C. […]

[2] = system: U-2 OS cells; experiment: Metaphase-TIFs in cells overexpressing FANCM variants; type: cell-based, human; settings: stable overexpression
Source text: as §1
FIG. 23. Defects in ALT phenotype suppression are exacerbated by overexpression of a double-mutant (DM) FANCM, in which both the MM2 domain (FF>AA) and the translocase domain (K117R) of FANCM are mutated. (a) Representative dot blots and quantitation of C-circle assays in U-2 OS cells stably overexpressing wild-type (WT) or FANCM domain mutants (K117R, FF>AA; DM). C-circles were normalized to the mean of empty vector control (EV). Error bars represent mean±SEM from n=3 experiments, *p<0.05, **p<0.005, Student's t-test. (b) Quantitation of APB frequency in U-2 OS cells overexpressing wild-type (WT) or FANCM mutants. Scatterplot bars represent the mean±SEM. Out of three experiments, n=150 cells were scored for each mutant, **p<0.005, Mann-Whitney test. (c) Quantitation of metaphase-TIFs in U-2 OS cells stably overexpressing wild-type (WT) or FANCM mutants. Scatterplot bars represent the mean±SEM. Out of three experiments, n=120 metaphases scored for each mutant, *p<0.05, **p<0.005, Mann-Whitney test. All statistical comparisons are relative to EV control.
as §2
as §3, with “min.” for “min. Coverslips were blocked with antibody-dilution buffer (20 mM Tris-HCl, pH 7.5, 2% (w/v) BSA, 0.2% (v/v) fish gelatin, 150 mM NaCl, 0.1% (v/v) Triton X-100 and 0.1% (w/v) sodium azide) and 0.1 mg/ml RNaseA for 30 min at 37° C.”

| Substance | number of fragile telomeres (telomere fragility) [1] | telomere dysfunction (metaphase-TIFs) [2] |
| --- | --- | --- |
| K117R: FANCM mutant (SEQ ID NO: 20) substituted at K117R, DEAH domain disrupted | failed to suppress the phenotypes | failed to suppress the phenotypes |
| FF>AA: FANCM mutant (SEQ ID NO: 25), double substitution F1232A/F1236A within the MM2 domain | significantly increased | significantly increased |
